Assay: xn = mol fraction of the nth substance listed
Conditions: 101 kPa

Cl.N[C@@H](CS)C(=O)O.O + O
viscosity [mPa·s]
Conditions | 303.15 K | 308.15 K | 313.15 K | 318.15 K | 323.15 K
x1 = 0.01 | 0.8529 | 0.7892 | 0.7275 | 0.6712 | 0.6181
x1 = 0.0122 | 0.9644 | – | 0.795 | – | 0.6742
x1 = 0.02 | 1.126 | 1.023 | 0.9082 | 0.8248 | 0.769
x1 = 0.0272 | 1.2 | – | 0.9836 | – | 0.8276
x1 = 0.04 | 1.506 | 1.356 | 1.273 | 1.112 | 1.018
x1 = 0.0463 | 1.591 | – | 1.288 | – | 1.084
x1 = 0.0579 | 1.877 | – | 1.508 | – | 1.244
x1 = 0.0714 | 2.27 | – | 1.797 | – | 1.49
x1 = 0.08 | 2.486 | 2.237 | 1.968 | 1.785 | 1.594
x1 = 0.0871 | 2.805 | – | 2.191 | – | 1.711
x1 = 0.1 | 3.391 | 2.955 | 2.572 | 2.293 | 2.048
x1 = 0.1057 | 3.602 | – | 2.783 | – | 2.239
x1 = 0.11 | 3.97 | 3.387 | 2.951 | 2.575 | 2.336
x1 = 0.12 | 4.627 | 3.883 | 3.387 | 2.93 | 2.67
x1 = 0.1281 | 5.207 | – | 3.69 | – | 2.906
x1 = 0.13 | 5.349 | 4.451 | 3.878 | 3.35 | 3.052
x1 = 0.14 | 6.119 | 5.101 | 4.426 | 3.833 | 3.483
x1 = 0.15 | 6.915 | 5.842 | 5.027 | 4.408 | 3.963
x1 = 0.1558 | 7.415 | – | 5.463 | – | 4.309
x1 = 0.16 | 7.706 | 6.524 | 5.678 | 5.017 | 4.492
x1 = 0.17 | 8.459 | 7.218 | 6.372 | 5.719 | 5.066
x1 = 0.18 | 9.134 | 8.014 | 7.104 | 6.301 | 5.685
x1 = 0.19 | 9.972 | 8.826 | 7.864 | 7.002 | 6.342
x1 = 0.1903 | 9.687 | – | 7.875 | – | 6.354

Source: the CheMixHub viscosity set
